Results from paper PMC4678601 (Chemical science (Royal Society of Chemistry : 2010), 2014).

How the values were obtained:
[1] = test system: histone demethylases (KDMs); assay: Selectivity panel of human 2OG oxygenases: histone demethylases; type: biochemical; details: at 100 μM
[2] = test system: carnitine biosynthesis in HEK 293T cells; assay: LC-MS detection of carnitine levels in HEK 293T cells; type: cell-based, human; details: for Carnitine levels: control 100% (SEM ± 13%)
HEK 293T cells = assay: Cytotoxicity in HEK 293T cells; type: cell-based, human; details: up to concentrations of 0.5 mM
BBOX [3] = details: read-out: IC50 BBOX in vitro; cited from earlier work
BBOX [4] = molecular target: T1, BBOX (Homo sapiens, UniProt O75936); assay: Binding assay by quenching of the intrinsic fluorescence of BBOX
T1 sequence (O75936 1-387): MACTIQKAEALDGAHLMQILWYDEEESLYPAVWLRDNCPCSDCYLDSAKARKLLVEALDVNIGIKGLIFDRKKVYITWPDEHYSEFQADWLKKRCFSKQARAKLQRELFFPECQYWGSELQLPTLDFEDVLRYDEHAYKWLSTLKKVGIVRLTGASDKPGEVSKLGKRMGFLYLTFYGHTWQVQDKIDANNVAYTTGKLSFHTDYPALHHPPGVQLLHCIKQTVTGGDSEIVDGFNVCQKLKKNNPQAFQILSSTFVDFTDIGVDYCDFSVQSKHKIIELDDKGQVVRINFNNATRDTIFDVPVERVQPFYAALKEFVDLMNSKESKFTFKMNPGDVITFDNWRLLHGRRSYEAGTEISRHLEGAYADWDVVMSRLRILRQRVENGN

BBOX [5] = details: read-out: KM of BBOX for 2OG; cited from earlier work

**Q.** With O=C(N[C@@H](CSCc1ccccn1)C(=O)O)c1ncccc1O [AR692B] as the molecule, how does the “Activity against the tested KDMs” value [1] read?
**A.** inactive

**Q.** What about the “Reduction in carnitine levels” value ([2]; HEK 293T cells, 100 μM) of the same molecule?
**A.** > 40%

**Q.** And the Carnitine levels ([2]; HEK 293T cells, 100 μM compound)?
**A.** 57 ± 9 percentage of free carnitine l

**Q.** What about the Cytotoxicity (HEK 293T cells) of the same molecule?
**A.** not cytotoxic

**Q.** Which IC50 (BBOX [3]) does the source give for C[N+](C)(C)NCCC(=O)[O-] [Mildronate] here?
**A.** 60 µM

**Q.** What about the Carnitine levels ([2]; HEK 293T cells, 20 μM compound) of the same molecule?
**A.** 70 ± 6 percentage of free carnitine l

**Q.** What about the “Reduction of carnitine levels” value ([2]; HEK 293T cells, 50 μM) of the same molecule?
**A.** 63%

**Q.** What about the Carnitine levels ([2]; HEK 293T cells, 50 μM compound) of the same molecule?
**A.** 37 ±10 percentage of free carnitine l

**Q.** And the “Activity on carnitine levels” value ([2]; HEK 293T cells, below 5 μM)?
**A.** not active

**Q.** What about the “Reduction of carnitine levels” value ([2]; cells, 20 μM) of the same molecule?
**A.** 30%

**Q.** For O=C(O)CNC(=O)c1ncccc1O [compound 1, (3-hydroxypicolinoyl)glycine], which Kd (BBOX [4]) is on record?
**A.** 10.8 µM

**Q.** With C[N+](C)(C)CCCC(=O)[O-] [GBB, γ-butyrobetaine] as the molecule, how does the “Reduction of carnitine levels” value ([2]; cells, 20 μM) read?
**A.** ~ 50%

**Q.** For O=C(O)CCC(=O)C(=O)O [2OG, 2-oxoglutarate], which Km (BBOX [5]) is on record?
**A.** 160 µM
